Assay results: patent publication US6451812B1, “Farnesyl protein transferase inhibitors for treating arthropathies” (Janssen Pharmaceutica N.V., priority 1998, dated 2002)

System: DBA1/J mice
Assay: Collagen type II induced arthritis, prophylactic treatment (Example 1)
Assay type: in vivo
Conditions: for Ankylosis score / Incidence of ankylosis (% of animals affected) / Incidence of arthritis (% of animals affected) / Mean Arthritic Score / Mean number of affected paws: 100 mpk (2 ×) orally, treated day 20-36
Protocol: Male DBA1/J mice were immunized intradermally with collagen type II emulsified in complete Freund's Adjuvant on day 0 and day 21. Treatment of mice was started on day 20 (10 animals/treatment group). Mice were treated orally twice daily (6 hours time interval) with vehicle [DMSO: cremophor: 0.9% NaCl solution, 1:1:8 (v:v:v)] or compound 75 at a dose of 100 mg/kg. Three times per week symptoms of arthritis were scored. Animals were treated till day 36, at day 37 animals were sacrificed, blood was collected for analysis of anti-collagen antibodies, radiographs were made and paws were fixed for histological evaluation. […] Trained lab personnel evaluated the severity and incidence of the arthritic symptoms at regular intervals without knowing which animals had received vehicle or drug.
In Table 9, the mean arthritic score is shown. For each paw, a score ranging from 0 (normal) to 2 (maximal redness and swelling) is given. The score for the 4 paws is summed up and averaged for the 10 animals per group (=Mean arthritic score).
Table 11 summarizes the results of the observations for the occurrence of ankylosis as the arthritis progresses. Each paw is scored as follows: 0 for no ankylosis, 1 for ankylosis. Again the results for the four paws are summed up and averaged for the 10 animals. At the end of the experiment, the ankylosis score in the vehicle group (3.1) is clearly higher than that in the group treated with Compound 75 (1.2).

[1] = 100 mg/kg orally twice daily, day 20-36
[2] = 100 mg/kg orally twice daily, versus vehicle

Cn1cncc1C(N)(c1ccc(Cl)cc1)c1ccc2c(c1)c(-c1cccc(Cl)c1)cc(=O)n2C (single isomer, unassigned; (+)) [Compound 75, (+)-6-[amino(4-chlorophenyl)(1-methyl-1H-imidazol-5-yl)methyl]-4-(3-chlorophenyl)-1-methyl-2(1H)-quinolinone]
lethalities [1]: no lethalities were observed
signs of toxicity [1]: did not show any signs of toxicity
effect on mean arthritic score (in words) [2]: clearly suppresses the arthritic score
effect on mean number of affected paws (in words) [2]: reduces that number
effect on mean arthritic score (in words) (100 mg/kg orally twice daily, versus vehicle, listed as compound 75): reduces the mean arthritic score
incidence of ankylosis (100 mg/kg orally twice daily, summary in text of Table 12): 60%
Ankylosis score (day 22 after immunization): 0.00
Incidence of ankylosis (% of animals affected) (day 22 after immunization): 0%
Incidence of arthritis (% of animals affected) (day 22 after immunization): 0%
Mean Arthritic Score (day 22 after immunization): 0.00
Mean number of affected paws (day 22 after immunization): 0.00
Ankylosis score (day 24 after immunization): 0.00
Incidence of ankylosis (% of animals affected) (day 24 after immunization): 0%
Incidence of arthritis (% of animals affected) (day 24 after immunization): 20%
Mean Arthritic Score (day 24 after immunization): 0.05
Mean number of affected paws (day 24 after immunization): 0.20
Ankylosis score (day 27 after immunization): 0.30
Incidence of ankylosis (% of animals affected) (day 27 after immunization): 10%
Incidence of arthritis (% of animals affected) (day 27 after immunization): 40%
Mean Arthritic Score (day 27 after immunization): 0.60
Mean number of affected paws (day 27 after immunization): 0.80
Ankylosis score (day 29 after immunization): 0.80
Incidence of ankylosis (% of animals affected) (day 29 after immunization): 50%
Incidence of arthritis (% of animals affected) (day 29 after immunization): 80%
Mean Arthritic Score (day 29 after immunization): 0.90
Mean number of affected paws (day 29 after immunization): 1.30
Ankylosis score (day 31 after immunization): 1.10
Incidence of ankylosis (% of animals affected) (day 31 after immunization): 50%
Incidence of arthritis (% of animals affected) (day 31 after immunization): 70%
Mean Arthritic Score (day 31 after immunization): 1.03
Mean number of affected paws (day 31 after immunization): 1.70
Ankylosis score (day 34 after immunization): 1.20
Incidence of ankylosis (% of animals affected) (day 34 after immunization): 50%
Incidence of arthritis (% of animals affected) (day 34 after immunization): 60%
Mean Arthritic Score (day 34 after immunization): 0.80
Mean number of affected paws (day 34 after immunization): 1.20
Ankylosis score (day 36 after immunization): 1.40
Incidence of ankylosis (% of animals affected) (day 36 after immunization): 60%
Incidence of arthritis (% of animals affected) (day 36 after immunization): 70%
Mean Arthritic Score (day 36 after immunization): 0.75
Mean number of affected paws (day 36 after immunization): 1.30
Ankylosis score (day 37 after immunization (end of the experiment), 100 mg/kg): 1.2
Incidence of ankylosis (% of animals affected) (day 37 after immunization): 60%
Incidence of arthritis (% of animals affected) (day 37 after immunization): 60%
Mean Arthritic Score (day 37 after immunization): 0.80
Mean number of affected paws (day 37 after immunization): 1.30
